Data taken from ChEMBL document CHEMBL1149571, “Proinsecticide candidates N-(5-methyl-2-oxo-1,3-dioxol-4-yl)methyl derivatives of imidacloprid and 1-chlorothiazolylmethyl-2-nitroimino-imidazolidine” (Bioorg Med Chem Lett, 2007).
Active and inactive are the calls of the source. No cut-off for these calls is given here.

Tests used:
[1] = Chemical stability assessed as half life of hydrolysis in acidic buffer at pH 5.4; type: physicochemical
[2] = Chemical stability assessed as half life of hydrolysis in alkaline buffer at pH 8.3; type: physicochemical
[3] = Chemical stability assessed as half life of hydrolysis in physiological solution at pH 7.6; type: physicochemical
Periplaneta americana [4] = assay: Insecticidal activity against american cockroach after 24 hrs; type: functional
Periplaneta americana [5] = assay: Activity at nAch receptor in american cockroach neurons assessed as induction of inward current at 10 uM by whole-cell patch clamp method

| Structure (SMILES) | half-life [1] | half-life [2] | half-life [3] | MLD (Periplaneta americana [4]) | Activity (Periplaneta americana [5]) |
| --- | --- | --- | --- | --- | --- |
| Cc1oc(=O)oc1CN1CCN(Cc2cnc(Cl)s2)/C1=N\[N+](=O)[O-] | > 48 h | 10.6 h | 10.5 h | 6.4 10^-8mol | Active |
| Cc1oc(=O)oc1CN1CCN(Cc2ccc(Cl)nc2)/C1=N\[N+](=O)[O-] | > 48 h | 15.5 h | 11.6 h | 6.4 10^-8mol | Active |
